Measurements as given in US12195551B2, “Combination of an ErbB-2/ErbB-3 bispecific antibody with endocrine therapy for breast cancer” (Merus N.V., priority 2017, dated 2025).

What was measured:
[1] = test system: MCF-7 human breast carcinoma; assay: Efficacy in nude mouse xenograft model of MCF-7 human breast carcinoma; assay type: in vivo
Method: MCLA-128 was evaluated as monotherapy and in combination with the SERM Tamoxifen and SERD Fulvestrant (Faslodex®) for efficacy in a nude mouse xenograft model of estrogen responsive MCF-7 human breast carcinoma. The study design also included tumor collection for downstream analysis.
Treatments began on D1 in mice with established subcutaneous MCF-7 tumors. The study endpoint was intended to be a tumor volume endpoint of 1000 mm3 45 days, whichever came first. […] Tumor regressions, mean tumor growth, and treatment tolerability also were considered.
The animals were fed ad libitum water (reverse osmosis, 1 ppm Cl) and NIH 31 Modified and Irradiated Lab Diet® consisting of 18.0% crude protein, 6.0% crude fat, and 5.0% crude fiber. The mice were housed on irradiated Enrich-o'Cobs™ Laboratory Animal Bedding in static 85 microisolators on a 12-hour light cycle at […] (68-72° F.) and 40-60% humidity.
Three days prior to tumor cell implantation, estrogen pellets (0.36 mg estradiol, 60-day release, Innovative Research of America, Sarasota, FL) were implanted subcutaneously between the scapulae of all test animals using a sterilized trocar.
Xenografts were initiated with cultured MCF-7 human breast carcinoma cells. Tumor cells were grown to mid-log phase in RPMI-1640 medium containing 10% fetal bovine serum, 100 units/mL penicillin G, 100 μg/mL streptomycin sulfate, 2 mM glutamine, 10 mM HEPES, 0.075% sodium bicarbonate and 25 μg/mL gentamicin. On the day of tumor cell implant, the cells were trypsinized, pelleted, and resuspended in phosphate buffered saline (PBS) at a concentration of 1×10e8 cells/mL. Each test mouse received 1×10e7 MCF-7 cells implanted subcutaneously in the right flank, and tumor growth was monitored as their mean volume approached the desired 100 to 150 mm3 range.
Nineteen days after tumor cell implantation, designated as D1 of the study, the mice were placed into six groups of 15 animals and four groups of six animals, Individual tumor volumes ranged from 75 to 196 mm3 and group mean tumor volumes of 134-137 mm3 on D1. Tumor weight was estimated with the assumption that 1 mg is equivalent to 1 mm3 of tumor volume.
MCLA-128 was stored at 4° C., was provided pre-formulated at 2.5 mg/mL and ready to dose as 25 mg/kg in a 10 mL/kg dose volume, and was protected from light during storage and handling. Tamoxifen (Sigma-25 Aldrich. Lot No. WXBB5732V) was received as a powder and was stored at 4° C. protected from light. Each week, a 5 mg/mL dose solution was prepared in corn oil, and each mouse received 0.2 mL for a dose of 1 mg/animal. The dose solution was stored at 4° C. Fulvestrant tradename Faslodex® (AstraZeneca, Lot No. LV032, LW466, and LX432) was received as 50 mg/mL stock solution that was stored at 4° C. Each dosing day, the stock was diluted in corn oil to 25 mg/mL, and each mouse received 0.2 mL for a dose of 5 mg/animal.
Groups 1 and 7 served as controls for efficacy and sampling, respectively, and received MCLA-128 vehicle intraperitoneally (i.p.) on D1, 4, 8, 11, 15, 18, 22, 25, and 29 and corn oil subcutaneously (s.c.) every other day for fifteen doses (qod×15). Groups 2 and 8 were administered MCLA-128 at 25 mg/kg, i.p., on the same schedule as MCLA-128 vehicle. Groups 3 and 9 were administered Faslodex® at 5.0 mg/animal, s.c., once weekly for five weeks (qwk×5). Group 4 was administered Tamoxifen at 1 mg/animal, s.c., qod×15. Groups 5 and 10 received MCLA-128 and Faslodex®, on the regimens described above. Group 6 received MCLA-128 and Tamoxifen on the regimens described above.
MCLA-128 was administered at a 10 mL/kg dose volume, scaled to the individual body weight of each animal.

[2] = test system: HER2; assay: Reverse phase protein array (RPPA) in MCF-7 tumor xenografts: HER2; assay type: in vivo, human; conditions: vs vehicle group, one-way ANOVA
Description: FIG. 9. Reverse phase protein array (RPPA) in MCF-7 tumor xenografts treated with vehicle, MCLA-128, Fulvestrant, Tamoxifen, MCLA-128+ Fulvestrant or MCLA-128+ Tamoxifen. Proteins detected in this assay included (phospho)-Akt and (phospho)-HER3 (full data provided in Appendix 4). One-way ANOVA compared levels in all tumors derived from treatment groups with those derived from the PBS group. ** indicates P<0.01.
Tumors from groups 1-6 were collected when they had reached the maximum tolerated volume, or at the end of the experiment at day 39, which was 10 days after the last dose. Per treatment group, six tumors were included in the Reverse phase protein array (RPPA). The selection of tumors was made so that the average tumor size of the 6 specimens was close to that of the whole group. RPPA analysis was performed as follows: tumors were sectioned and placed on immunohistochemistry slides. Stromal and inflammatory content was macrodissected to purify for tumors cells. Protein lysates were prepared and protein content was quantified. […] Reverse phase protein array (RPPA) data were analyzed using one-way ANOVA to detect significant differences between the treatment groups and the vehicle group. […] Total ERK levels were increased in the single agent groups only, no differences were measured in the other groups or in the phosphorylated ERK analysis. […]

[3] = test system: HBCx-34 PDX model; conditions: model characterisation; cited from earlier work

## CC/C(=C(\c1ccccc1)c1ccc(OCCN(C)C)cc1)c1ccccc1 [Tamoxifen]
[1]; D25, relative to the control group, MCLA-128 25 mg/kg i.p., Faslodex 5.0 mg/animal, Tamoxifen 1 mg/animal
  % TGI (tumor growth inhibition): 69%
[1]; D25, MCLA-128 25 mg/kg i.p., Faslodex 5.0 mg/animal s.c. qwk×5, Tamoxifen 1 mg/animal s.c. qod×15
  median tumor volume: 184 mm3
[1]; D25 tumor volumes, Mann-Whitney test
  P relative to the control group: < 0.001
[1]; MCF-7 nude mouse xenograft model
  anti-tumor efficacy / survival benefit (in words): significantly reduced tumor growth
[2]
  Total HER2 levels (RPPA): significantly increased
[3]
  response of the HBCx-34 PDX model: responder
